Test results from patent EP3046573B1, “AMYLIN ANALOGUES” (Zealand Pharma A/S, priority 2013, dated 2015).
Like-named read-outs stand apart in the source and are kept apart here. Numbered stars: 1 amine (or outer) side, 2 acyl side, 3 side chain; on linkers, the order of the positions; unused ones are H or OH. Bridge positions count the residues as written; N and C are the ends. Square brackets hold non-standard residues; d marks the D form. Peptide text beside a SMILES is read from it. * marks the point of attachment. C20 diacid = O=C(O)CCCCCCCCCCCCCCCCCCC(=O)*; γGlu = O=C(O)[C@H](CCC(=O)[*:2])N[*:1]; NMeI = CC[C@H](C)[C@H](NC)C(=O)O; NMeA = CN[C@@H](C)C(=O)O; Sar = CNCC(=O)O

What was measured:
[1] = target: T1, human calcitonin receptor (hCTR2) (Homo sapiens, UniProt P30988); assay: hCTR2 assay: induction of cAMP (AlphaScreen cAMP Assay kit) in COS7 cells expressing hCTR2; type: cell-based
T1 construct: expressed in transfected cells
T1 sequence (P30988 25-474): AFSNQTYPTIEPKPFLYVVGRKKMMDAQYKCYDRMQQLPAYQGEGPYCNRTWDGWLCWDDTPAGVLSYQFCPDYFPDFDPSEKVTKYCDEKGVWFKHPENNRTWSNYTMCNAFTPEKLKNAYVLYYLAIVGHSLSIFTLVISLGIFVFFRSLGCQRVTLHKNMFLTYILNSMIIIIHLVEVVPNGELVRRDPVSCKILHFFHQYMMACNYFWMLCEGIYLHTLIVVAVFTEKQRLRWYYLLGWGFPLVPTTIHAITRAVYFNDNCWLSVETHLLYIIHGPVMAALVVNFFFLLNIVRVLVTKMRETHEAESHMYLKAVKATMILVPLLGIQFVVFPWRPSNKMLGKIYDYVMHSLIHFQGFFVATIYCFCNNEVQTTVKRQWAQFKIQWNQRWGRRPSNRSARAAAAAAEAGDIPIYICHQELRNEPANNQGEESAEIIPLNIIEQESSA
Procedure, shortened: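 Peptide-induced cAMP in hCTR2-expressing COS7 cells, 15 min at 37° C with phosphodiesterase inhibitor IBMX (100 µM), detected by AlphaScreen; potency from 4PL curves.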

[2] = Solubility assessment (turbidity absorbance at 325 nm); type: physicochemical; settings: stock 2 mg/ml diluted 1:1, ambient temperature (typically 25°C), n=1; for Solubility, Acetate buffer pH 4: 100 mM acetate buffer pH 4.0; for Solubility, Acetate buffer pH 5: 100 mM acetate buffer pH 5.0; for Solubility, Histidine buffer pH 6: 100 mM histidine buffer pH 6.0; for Solubility, Histidine buffer pH 7: 100 mM histidine buffer pH 7.0; for Solubility, Phosphate buffer pH 6: 100 mM phosphate buffer pH 6.0; for Solubility, Phosphate buffer pH 7: 100 mM phosphate buffer pH 7.0; for Solubility, Phosphate buffer pH 7.5: 100 mM phosphate buffer pH7.5
Procedure, shortened: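 Turbidity read as absorbance at 325 nm (also 280 nm), single samples at ambient temperature (typically 25°C); ≤ 0.02 units counts as ≥ 1 mg/ml soluble. Samples made by 1:1 dilution of a 2 mg/ml acidic stock into 100 mM acetate, histidine or phosphate buffers, pH 4.0–7.5.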

[3] = cAMP induction in COS7 cells expressing hCTR2, average of a minimum of 3 determinations, read-out: hCTR2 EC50

Row | Compound | EC50 [1, 3] | Solubility, Acetate buffer pH 4 [2] | Solubility, Acetate buffer pH 5 [2] | Solubility, Histidine buffer pH 6 [2] | Solubility, Histidine buffer pH 7 [2] | Solubility, Phosphate buffer pH 6 [2] | Solubility, Phosphate buffer pH 7 [2] | Solubility, Phosphate buffer pH 7.5 [2] | EC50 [1]
1 | CC[C@H](C)[C@@H](C(=O)N[C@@H](CC(C)C)C(=O)N[C@@H](CO)C(=O)N[C@@H](CO)C(=O)N[C@H](C(=O)N[C@@H](CC(N)=O)C(=O)N[C@H](C(=O)NCC(=O)N[C@@H](CO)C(=O)N[C@@H](CC(N)=O)C(=O)N[C@H](C(=O)N1CCC[C@H]1C(N)=O)[C@@H](C)O)C(C)C)[C@@H](C)O)N(C)C(=O)CN(C)C(=O)[C@H](Cc1ccccc1)NC(=O)[C@H](CO)NC(=O)[C@H](CO)NC(=O)[C@H](Cc1c[nH]cn1)NC(=O)[C@H](Cc1c[nH]cn1)NC(=O)[C@H](CC(C)C)NC(=O)[C@H](Cc1ccccc1)NC(=O)[C@H](CCC(=O)O)NC(=O)[C@H](C)NC(=O)[C@H](CC(C)C)NC(=O)[C@H](CCCNC(=N)N)NC(=O)[C@H](CCC(N)=O)NC(=O)[C@@H](NC(=O)[C@H](C)NC(=O)[C@@H]1CSSC[C@H](NC(=O)[C@H](CCCNC(=N)N)NC(=O)CC[C@H](NC(=O)CCCCCCCCCCCCCCCCCCC(=O)O)C(=O)O)C(=O)N[C@@H](CC(N)=O)C(=O)N[C@@H]([C@@H](C)O)C(=O)N[C@@H](C)C(=O)N[C@@H]([C@@H](C)O)C(=O)N1)[C@@H](C)O [Compound 53, [19CD]-isoGlu-RC()NTATC()ATQRLAEFLHHSSF-Gly(Me)-Ile(Me)-LSSTNVGSNTP-NH2] ({C20 diacid-γGlu}-RCNTATCATQRLAEFLHHSSF[Sar][NMeI]LSSTNVGSNTP-NH2; disulfide 2-7) | 0.12 nM | SS (SS indicates solubility ≥ 1mg/ml) | SS (SS indicates solubility ≥ 1mg/ml) | SS (SS indicates solubility ≥ 1mg/ml) | SS (SS indicates solubility ≥ 1mg/ml) | SS (SS indicates solubility ≥ 1mg/ml) | SS (SS indicates solubility ≥ 1mg/ml) | SS (SS indicates solubility ≥ 1mg/ml) | –
2 | CC[C@H](C)[C@@H](C(=O)N[C@@H](CO)C(=O)N[C@@H](CO)C(=O)N[C@H](C(=O)N[C@@H](CC(N)=O)C(=O)N[C@H](C(=O)NCC(=O)N[C@@H](CO)C(=O)N[C@@H](CC(N)=O)C(=O)N[C@H](C(=O)N1CCC[C@H]1C(N)=O)[C@@H](C)O)C(C)C)[C@@H](C)O)N(C)C(=O)[C@H](C)NC(=O)CN(C)C(=O)[C@H](Cc1ccccc1)NC(=O)[C@H](CC(N)=O)NC(=O)[C@H](CC(N)=O)NC(=O)[C@H](CO)NC(=O)[C@H](CO)NC(=O)[C@H](Cc1c[nH]cn1)NC(=O)[C@H](Cc1c[nH]cn1)NC(=O)[C@H](CC(C)C)NC(=O)[C@H](Cc1ccccc1)NC(=O)[C@H](CCC(=O)O)NC(=O)[C@H](C)NC(=O)[C@H](CC(C)C)NC(=O)[C@H](CCCNC(=N)N)NC(=O)[C@H](CCC(N)=O)NC(=O)[C@@H](NC(=O)[C@H](C)NC(=O)[C@@H]1CSSC[C@H](NC(=O)[C@H](CCCNC(=N)N)NC(=O)CC[C@H](NC(=O)CCCCCCCCCCCCCCCCCCC(=O)O)C(=O)O)C(=O)N[C@@H](CC(N)=O)C(=O)N[C@@H]([C@@H](C)O)C(=O)N[C@@H](C)C(=O)N[C@@H]([C@@H](C)O)C(=O)N1)[C@@H](C)O [Compound 54, [19CD]-isoGlu-RC()NTATC()ATQRLAEFLHHSSNNF-Gly(Me)-A-Ile(Me)-SSTNVGSNTP-NH2] ({C20 diacid-γGlu}-RCNTATCATQRLAEFLHHSSNNF[Sar]A[NMeI]SSTNVGSNTP-NH2; disulfide 2-7) | – | SS (SS indicates solubility ≥ 1mg/ml) | SS (SS indicates solubility ≥ 1mg/ml) | SS (SS indicates solubility ≥ 1mg/ml) | SS (SS indicates solubility ≥ 1mg/ml) | SS (SS indicates solubility ≥ 1mg/ml) | SS (SS indicates solubility ≥ 1mg/ml) | SS (SS indicates solubility ≥ 1mg/ml) | 0.091 nM
3 | CC[C@H](C)[C@@H](C(=O)N[C@@H](CO)C(=O)N[C@@H](CO)C(=O)N[C@H](C(=O)N[C@@H](CC(N)=O)C(=O)N[C@H](C(=O)NCC(=O)N[C@@H](CO)C(=O)N[C@@H](CC(N)=O)C(=O)N[C@H](C(=O)N1CCC[C@H]1C(N)=O)[C@@H](C)O)C(C)C)[C@@H](C)O)N(C)C(=O)CN(C)C(=O)[C@H](Cc1ccccc1)NC(=O)[C@H](CC(N)=O)NC(=O)[C@H](CC(N)=O)NC(=O)[C@H](CO)NC(=O)[C@H](CO)NC(=O)[C@H](Cc1c[nH]cn1)NC(=O)[C@H](Cc1c[nH]cn1)NC(=O)[C@H](CC(C)C)NC(=O)[C@H](Cc1ccccc1)NC(=O)[C@H](CCC(=O)O)NC(=O)[C@H](C)NC(=O)[C@H](CC(C)C)NC(=O)[C@H](CCCNC(=N)N)NC(=O)[C@H](CCC(N)=O)NC(=O)[C@@H](NC(=O)[C@H](C)NC(=O)[C@@H]1CSSC[C@H](NC(=O)[C@H](CCCNC(=N)N)NC(=O)CC[C@H](NC(=O)CCCCCCCCCCCCCCCCCCC(=O)O)C(=O)O)C(=O)N[C@@H](CC(N)=O)C(=O)N[C@@H]([C@@H](C)O)C(=O)N[C@@H](C)C(=O)N[C@@H]([C@@H](C)O)C(=O)N1)[C@@H](C)O [Compound 55, [19CD]-isoGlu-RC()NTATC()ATQRLAEFLHHSSNNF-Gly(Me)-Ile(Me)-SSTNVGSNTP-NH2] ({C20 diacid-γGlu}-RCNTATCATQRLAEFLHHSSNNF[Sar][NMeI]SSTNVGSNTP-NH2; disulfide 2-7) | 0.076 nM | II (II indicates solubility ≤ 1 mg/ml) | II (II indicates solubility ≤ 1 mg/ml) | II (II indicates solubility ≤ 1 mg/ml) | II (II indicates solubility ≤ 1 mg/ml) | II (II indicates solubility ≤ 1 mg/ml) | II (II indicates solubility ≤ 1 mg/ml) | II (II indicates solubility ≤ 1 mg/ml) | –
4 | CC[C@H](C)[C@@H](C(=O)N[C@@H](CC(C)C)C(=O)N[C@@H](CO)C(=O)N[C@@H](CO)C(=O)N[C@H](C(=O)N[C@@H](CC(N)=O)C(=O)N[C@H](C(=O)NCC(=O)N[C@@H](CO)C(=O)N[C@@H](CC(N)=O)C(=O)N[C@H](C(=O)N1CCC[C@H]1C(N)=O)[C@@H](C)O)C(C)C)[C@@H](C)O)N(C)C(=O)[C@H](C)NC(=O)[C@H](C)N(C)C(=O)[C@H](Cc1ccccc1)NC(=O)[C@H](CC(N)=O)NC(=O)[C@H](CC(N)=O)NC(=O)[C@H](CO)NC(=O)[C@H](CO)NC(=O)[C@H](Cc1c[nH]cn1)NC(=O)[C@H](Cc1c[nH]cn1)NC(=O)[C@H](CC(C)C)NC(=O)[C@H](Cc1ccccc1)NC(=O)[C@H](CCC(=O)O)NC(=O)[C@H](C)NC(=O)[C@H](CC(C)C)NC(=O)[C@H](CCCNC(=N)N)NC(=O)[C@H](CCC(N)=O)NC(=O)[C@@H](NC(=O)[C@H](C)NC(=O)[C@@H]1CSSC[C@H](NC(=O)[C@H](CCCNC(=N)N)NC(=O)CC[C@H](NC(=O)CCCCCCCCCCCCCCCCCCC(=O)O)C(=O)O)C(=O)N[C@@H](CC(N)=O)C(=O)N[C@@H]([C@@H](C)O)C(=O)N[C@@H](C)C(=O)N[C@@H]([C@@H](C)O)C(=O)N1)[C@@H](C)O [Compound 56, [19CD]-isoGlu-RC()NTATC()ATQRLAEFLHHSSNNF-Ala(Me)-A-Ile(Me)-LSSTNVGSNTP-NH2] ({C20 diacid-γGlu}-RCNTATCATQRLAEFLHHSSNNF[NMeA]A[NMeI]LSSTNVGSNTP-NH2; disulfide 2-7) | 0.14 nM | SS (SS indicates solubility ≥ 1mg/ml) | II (II indicates solubility ≤ 1 mg/ml) | II (II indicates solubility ≤ 1 mg/ml) | II (II indicates solubility ≤ 1 mg/ml) | II (II indicates solubility ≤ 1 mg/ml) | II (II indicates solubility ≤ 1 mg/ml) | II (II indicates solubility ≤ 1 mg/ml) | –
